Reference: the supplement of paper PMC10307832

Experiments:
Assay in all cases: relative viability (nuclei count vs DMSO), 5 days (fraction); higher = more cells survive
Elesclomol + Crizotinib = compound: CN(NC(=O)CC(=O)NN(C)C(=S)c1ccccc1)C(=S)c1ccccc1 [Elesclomol] + C[C@@H](Oc1cc(-c2cnn(C3CCNCC3)c2)cnc1N)c1c(Cl)ccc(F)c1Cl [Crizotinib] (partner 1 µM)
Procedure, shortened: (§1)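 Relative viability divides the nuclei count in treated wells by that in vehicle wells. Lung cancer cell lines were seeded in 1536-well plates, dosed by pin tool the next day, and fixed and stained after 5 days in one step with final 0.05% Triton X-100, 1% formaldehyde and 1 ug/ml Hoechst. Dosing was a single drug or a fixed anchor-drug dose plus five library-drug doses (not always all listed) in √10 steps, and values are medians of duplicate plates imaged at 4×.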

Elesclomol + Pictilisib = compound: CN(NC(=O)CC(=O)NN(C)C(=S)c1ccccc1)C(=S)c1ccccc1 [Elesclomol] + CS(=O)(=O)N1CCN(Cc2cc3nc(-c4cccc5[nH]ncc45)nc(N4CCOCC4)c3s2)CC1 [Pictilisib] (partner 1 µM)
Procedure, shortened: as §1

Elesclomol + Trametinib = compound: CN(NC(=O)CC(=O)NN(C)C(=S)c1ccccc1)C(=S)c1ccccc1 [Elesclomol] + CC(=O)Nc1cccc(-n2c(=O)n(C3CC3)c(=O)c3c(Nc4ccc(I)cc4F)n(C)c(=O)c(C)c32)c1 [Trametinib] (partner 0.02 µM)
Procedure, shortened: as §1

Elesclomol + Olaparib = compound: CN(NC(=O)CC(=O)NN(C)C(=S)c1ccccc1)C(=S)c1ccccc1 [Elesclomol] + O=C(c1cc(Cc2n[nH]c(=O)c3ccccc23)ccc1F)N1CCN(C(=O)C2CC2)CC1 [Olaparib] (partner 8 µM)
Procedure, shortened: as §1

Elesclomol + AZD7762 = compound: CN(NC(=O)CC(=O)NN(C)C(=S)c1ccccc1)C(=S)c1ccccc1 [Elesclomol] + NC(=O)Nc1cc(-c2cccc(F)c2)sc1C(=O)N[C@H]1CCCNC1 [AZD7762] (partner 0.2 µM)
Procedure, shortened: as §1

Cell Line: NCI-H1650
- relative viability (Elesclomol + Crizotinib; first compound 0.003162 µM): 0.325
- relative viability (Elesclomol + Crizotinib; first compound 0.01 µM): 0.221
- relative viability (Elesclomol + Crizotinib; first compound 0.03162 µM): 0.255
- relative viability (Elesclomol + Crizotinib; first compound 0.1 µM): 0.122
- relative viability (Elesclomol + Pictilisib; first compound 0.003162 µM): 0.185
- relative viability (Elesclomol + Pictilisib; first compound 0.01 µM): 0.177
- relative viability (Elesclomol + Pictilisib; first compound 0.03162 µM): 0.18
- relative viability (Elesclomol + Pictilisib; first compound 0.1 µM): 0.15
- relative viability (Elesclomol + Trametinib; first compound 0.003162 µM): 0.202
- relative viability (Elesclomol + Trametinib; first compound 0.01 µM): 0.188
- relative viability (Elesclomol + Trametinib; first compound 0.03162 µM): 0.116
- relative viability (Elesclomol + Trametinib; first compound 0.1 µM): 0.102
- relative viability (Elesclomol + Olaparib; first compound 0.003162 µM): 0.583
- relative viability (Elesclomol + Olaparib; first compound 0.01 µM): 0.291
- relative viability (Elesclomol + Olaparib; first compound 0.03162 µM): 0.145
- relative viability (Elesclomol + Olaparib; first compound 0.1 µM): 0.0879

Cell Line: NCI-H522
- relative viability (Elesclomol + Trametinib; first compound 0.003162 µM): 0.698
- relative viability (Elesclomol + Trametinib; first compound 0.01 µM): 0.792
- relative viability (Elesclomol + Trametinib; first compound 0.03162 µM): 0.821
- relative viability (Elesclomol + Trametinib; first compound 0.1 µM): 0.403
- relative viability (Elesclomol + AZD7762; first compound 0.003162 µM): 0.955
- relative viability (Elesclomol + AZD7762; first compound 0.01 µM): 0.857
- relative viability (Elesclomol + AZD7762; first compound 0.03162 µM): 0.756
- relative viability (Elesclomol + AZD7762; first compound 0.1 µM): 0.518
- relative viability (Elesclomol + Olaparib; first compound 0.003162 µM): 0.617
- relative viability (Elesclomol + Olaparib; first compound 0.01 µM): 0.812
- relative viability (Elesclomol + Olaparib; first compound 0.03162 µM): 0.618
- relative viability (Elesclomol + Olaparib; first compound 0.1 µM): 0.431

Cell Line: NCI-H520
- relative viability (Elesclomol + Crizotinib; first compound 0.003162 µM): 0.69
- relative viability (Elesclomol + Crizotinib; first compound 0.01 µM): 0.713
- relative viability (Elesclomol + Crizotinib; first compound 0.03162 µM): 0.233
- relative viability (Elesclomol + Crizotinib; first compound 0.1 µM): 0.0848
- relative viability (Elesclomol + Pictilisib; first compound 0.003162 µM): 0.255
- relative viability (Elesclomol + Pictilisib; first compound 0.01 µM): 0.279
- relative viability (Elesclomol + Pictilisib; first compound 0.03162 µM): 0.22
- relative viability (Elesclomol + Pictilisib; first compound 0.1 µM): 0.132
- relative viability (Elesclomol + Trametinib; first compound 0.003162 µM): 0.789
- relative viability (Elesclomol + Trametinib; first compound 0.01 µM): 0.65
- relative viability (Elesclomol + Trametinib; first compound 0.03162 µM): 0.301
- relative viability (Elesclomol + Trametinib; first compound 0.1 µM): 0.137
- relative viability (Elesclomol + Olaparib; first compound 0.003162 µM): 0.333
- relative viability (Elesclomol + Olaparib; first compound 0.01 µM): 0.32
- relative viability (Elesclomol + Olaparib; first compound 0.03162 µM): 0.152
- relative viability (Elesclomol + Olaparib; first compound 0.1 µM): 0.0887

Cell Line: UMC-11
- relative viability (Elesclomol + Crizotinib; first compound 0.003162 µM): 0.649
- relative viability (Elesclomol + Crizotinib; first compound 0.01 µM): 0.445
- relative viability (Elesclomol + Crizotinib; first compound 0.03162 µM): 0.343
- relative viability (Elesclomol + Crizotinib; first compound 0.1 µM): 0.183
- relative viability (Elesclomol + Pictilisib; first compound 0.003162 µM): 0.827
- relative viability (Elesclomol + Pictilisib; first compound 0.01 µM): 0.67
- relative viability (Elesclomol + Pictilisib; first compound 0.03162 µM): 0.561
- relative viability (Elesclomol + Pictilisib; first compound 0.1 µM): 0.44
- relative viability (Elesclomol + Trametinib; first compound 0.003162 µM): 0.703
- relative viability (Elesclomol + Trametinib; first compound 0.01 µM): 0.653
- relative viability (Elesclomol + Trametinib; first compound 0.03162 µM): 0.407
- relative viability (Elesclomol + Trametinib; first compound 0.1 µM): 0.369
- relative viability (Elesclomol + Olaparib; first compound 0.003162 µM): 0.54
- relative viability (Elesclomol + Olaparib; first compound 0.01 µM): 0.338
- relative viability (Elesclomol + Olaparib; first compound 0.03162 µM): 0.279
- relative viability (Elesclomol + Olaparib; first compound 0.1 µM): 0.266

Cell Line: SK-LU-1
- relative viability (Elesclomol + Crizotinib; first compound 0.003162 µM): 0.904
- relative viability (Elesclomol + Crizotinib; first compound 0.01 µM): 0.677
- relative viability (Elesclomol + Crizotinib; first compound 0.03162 µM): 0.362
- relative viability (Elesclomol + Crizotinib; first compound 0.1 µM): 0.141
- relative viability (Elesclomol + Pictilisib; first compound 0.003162 µM): 0.55
- relative viability (Elesclomol + Pictilisib; first compound 0.01 µM): 0.469
- relative viability (Elesclomol + Pictilisib; first compound 0.03162 µM): 0.319
- relative viability (Elesclomol + Pictilisib; first compound 0.1 µM): 0.178
- relative viability (Elesclomol + Trametinib; first compound 0.003162 µM): 0.517
- relative viability (Elesclomol + Trametinib; first compound 0.01 µM): 0.316
- relative viability (Elesclomol + Trametinib; first compound 0.03162 µM): 0.287
- relative viability (Elesclomol + Trametinib; first compound 0.1 µM): 0.338
- relative viability (Elesclomol + Olaparib; first compound 0.003162 µM): 0.468
- relative viability (Elesclomol + Olaparib; first compound 0.01 µM): 0.373
- relative viability (Elesclomol + Olaparib; first compound 0.03162 µM): 0.378
- relative viability (Elesclomol + Olaparib; first compound 0.1 µM): 0.249

Cell Line: SW 1573
- relative viability (Elesclomol + Crizotinib; first compound 0.003162 µM): 0.806
- relative viability (Elesclomol + Crizotinib; first compound 0.01 µM): 0.344
- relative viability (Elesclomol + Crizotinib; first compound 0.03162 µM): 0.147
- relative viability (Elesclomol + Crizotinib; first compound 0.1 µM): 0.128
- relative viability (Elesclomol + Pictilisib; first compound 0.003162 µM): 0.479
- relative viability (Elesclomol + Pictilisib; first compound 0.01 µM): 0.121
- relative viability (Elesclomol + Pictilisib; first compound 0.03162 µM): 0.104
- relative viability (Elesclomol + Pictilisib; first compound 0.1 µM): 0.074
- relative viability (Elesclomol + Trametinib; first compound 0.003162 µM): 0.192
- relative viability (Elesclomol + Trametinib; first compound 0.01 µM): 0.115
- relative viability (Elesclomol + Trametinib; first compound 0.03162 µM): 0.0701
- relative viability (Elesclomol + Trametinib; first compound 0.1 µM): 0.0281
- relative viability (Elesclomol + Olaparib; first compound 0.003162 µM): 0.201
- relative viability (Elesclomol + Olaparib; first compound 0.01 µM): 0.146
- relative viability (Elesclomol + Olaparib; first compound 0.03162 µM): 0.0695
- relative viability (Elesclomol + Olaparib; first compound 0.1 µM): 0.0085

Cell Line: SW 900
- relative viability (Elesclomol + Trametinib; first compound 0.003162 µM): 0.902
- relative viability (Elesclomol + Trametinib; first compound 0.01 µM): 0.399
- relative viability (Elesclomol + Trametinib; first compound 0.03162 µM): 0.197
- relative viability (Elesclomol + Trametinib; first compound 0.1 µM): 0.14
- relative viability (Elesclomol + AZD7762; first compound 0.003162 µM): 0.709
- relative viability (Elesclomol + AZD7762; first compound 0.01 µM): 0.54
- relative viability (Elesclomol + AZD7762; first compound 0.03162 µM): 0.272
- relative viability (Elesclomol + AZD7762; first compound 0.1 µM): 0.103
- relative viability (Elesclomol + Olaparib; first compound 0.003162 µM): 0.774
- relative viability (Elesclomol + Olaparib; first compound 0.01 µM): 0.596
- relative viability (Elesclomol + Olaparib; first compound 0.03162 µM): 0.264
- relative viability (Elesclomol + Olaparib; first compound 0.1 µM): 0.0917

Cell Line: NCI-H2228
- relative viability (Elesclomol + Crizotinib; first compound 0.003162 µM): 0.381
- relative viability (Elesclomol + Crizotinib; first compound 0.01 µM): 0.312
- relative viability (Elesclomol + Crizotinib; first compound 0.03162 µM): 0.143
- relative viability (Elesclomol + Crizotinib; first compound 0.1 µM): 0.0592
- relative viability (Elesclomol + Pictilisib; first compound 0.003162 µM): 0.395
- relative viability (Elesclomol + Pictilisib; first compound 0.01 µM): 0.352
- relative viability (Elesclomol + Pictilisib; first compound 0.03162 µM): 0.132
- relative viability (Elesclomol + Pictilisib; first compound 0.1 µM): 0.0486
- relative viability (Elesclomol + Trametinib; first compound 0.003162 µM): 0.573
- relative viability (Elesclomol + Trametinib; first compound 0.01 µM): 0.228
- relative viability (Elesclomol + Trametinib; first compound 0.03162 µM): 0.177
- relative viability (Elesclomol + Trametinib; first compound 0.1 µM): 0.0514
- relative viability (Elesclomol + Olaparib; first compound 0.003162 µM): 0.537
- relative viability (Elesclomol + Olaparib; first compound 0.01 µM): 0.365
- relative viability (Elesclomol + Olaparib; first compound 0.03162 µM): 0.195
- relative viability (Elesclomol + Olaparib; first compound 0.1 µM): 0.0479

Cell Line: COR-L23
- relative viability (Elesclomol + Crizotinib; first compound 0.003162 µM): 0.633
- relative viability (Elesclomol + Crizotinib; first compound 0.01 µM): 0.409
- relative viability (Elesclomol + Crizotinib; first compound 0.03162 µM): 0.341
- relative viability (Elesclomol + Crizotinib; first compound 0.1 µM): 0.124
- relative viability (Elesclomol + Pictilisib; first compound 0.003162 µM): 0.662
- relative viability (Elesclomol + Pictilisib; first compound 0.01 µM): 0.308
- relative viability (Elesclomol + Pictilisib; first compound 0.03162 µM): 0.224
- relative viability (Elesclomol + Pictilisib; first compound 0.1 µM): 0.24
- relative viability (Elesclomol + Trametinib; first compound 0.003162 µM): 0.55
- relative viability (Elesclomol + Trametinib; first compound 0.01 µM): 0.22
- relative viability (Elesclomol + Trametinib; first compound 0.03162 µM): 0.239
- relative viability (Elesclomol + Trametinib; first compound 0.1 µM): 0.101
- relative viability (Elesclomol + Olaparib; first compound 0.003162 µM): 0.314
- relative viability (Elesclomol + Olaparib; first compound 0.01 µM): 0.254
- relative viability (Elesclomol + Olaparib; first compound 0.03162 µM): 0.143
- relative viability (Elesclomol + Olaparib; first compound 0.1 µM): 0.0895
